Molecular target: T1, P2X7 receptor (Mus musculus, UniProt Q9Z1M0)
T1 construct: gene P2rx7
T1 sequence (Q9Z1M0 1-595): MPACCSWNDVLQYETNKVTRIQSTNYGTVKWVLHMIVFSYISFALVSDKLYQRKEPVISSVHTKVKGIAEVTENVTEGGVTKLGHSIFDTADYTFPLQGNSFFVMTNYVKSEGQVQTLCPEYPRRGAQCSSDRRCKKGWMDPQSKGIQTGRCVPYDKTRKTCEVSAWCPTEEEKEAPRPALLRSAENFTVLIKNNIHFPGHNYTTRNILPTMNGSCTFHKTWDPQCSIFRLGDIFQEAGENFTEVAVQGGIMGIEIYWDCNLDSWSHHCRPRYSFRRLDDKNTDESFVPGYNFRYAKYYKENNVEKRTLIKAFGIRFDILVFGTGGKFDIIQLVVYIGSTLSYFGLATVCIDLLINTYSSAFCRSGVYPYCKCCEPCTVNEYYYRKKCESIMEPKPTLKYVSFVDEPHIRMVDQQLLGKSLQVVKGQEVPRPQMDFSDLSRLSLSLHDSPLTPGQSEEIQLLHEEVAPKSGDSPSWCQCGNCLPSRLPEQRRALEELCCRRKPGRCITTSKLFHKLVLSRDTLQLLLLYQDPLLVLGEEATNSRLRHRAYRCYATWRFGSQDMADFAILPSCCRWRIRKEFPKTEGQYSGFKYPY
Assay: agonist-induced intracellular calcium microfluorimetry and single-cell calcium imaging in mouse E14Tg2A ES cells (native receptor)
Type: cell-based

With Nc1ncnc2c1ncn2[C@@H]1O[C@H](COP(=O)(O)OP(=O)(O)OP(=O)(O)O)[C@@H](O)[C@H]1O [ATP] the EC50 was 4.1 ± 1.8 µM.

From publication PMC4010452, “Modulation of Mouse Embryonic Stem Cell Proliferation and Neural Differentiation by the P2X7 Receptor” (PLoS ONE, 2014)
